Holding throughout (type): in vivo
Data set [1] has as its system Beet Armyworm (BAW) (Spodoptera exigua). Kind of data set: Bioassay on Beet Armyworm (BAW), 128-well diet tray assay. As to conditions: Spodoptera exigua, 168 h; 50 μg/cm2 on artificial diet, second instar larvae, five to seven days; read-out: Rating BAW (% Control (or Mortality)). Summed up:
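Spodoptera exigua larvae on diet trays held 5–7 days at 25 °C, 14:10 light-dark. Percent mortality scored per well and averaged over eight wells.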

For data set [2], the system named is Corn Earworm (CEW) (Helicoverpa zea). Kind of data set: Bioassay on Corn Earworm (CEW), 128-well diet tray assay. As to conditions: Helicoverpa zea, 168 h, second instar larvae, five to seven days; for mortality at 50 µg/cm2: 50 μg/cm2 on artificial diet, read-out: Rating CEW (% Control (or Mortality)). The method in brief:
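Helicoverpa zea larvae in 128-well diet trays, held at 25 °C, 14:10 light-dark for five to seven days. Percent mortality scored per well and averaged over eight wells.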

For data set [3], the system named is Green Peach Aphid (GPA) (Myzus persicae). The data set can be described thus: Bioassay on Green Peach Aphid (GPA), foliar spray on cabbage seedlings. As to conditions: Myzus persicae, 72 h; 200 ppm foliar spray on cabbage seedlings, graded after three days, Abbott corrected % control; read-out: Rating GPA (% Control (or Mortality)). The procedure: Certain molecules disclosed in this document were tested against GPA using procedures described in the following example. In the reporting of the results, the “GPA Rating Table” was used (See Table Section).
Cabbage seedlings grown in 3-inch pots, with 2-3 small (3-5 cm) true leaves, were used as test substrate. The seedlings were infested with 20-50 GPA (wingless adult and nymph stages) one day prior to chemical application. Four pots with individual seedlings were used for each treatment. Test compounds (2 mg) were dissolved in 2 mL of acetone/MeOH (1:1) solvent, forming stock solutions of 1000 ppm test compound. The stock solutions were diluted 5× with 0.025% Tween 20 in H2O to obtain the solution at 200 ppm test compound. A hand-held aspirator-type sprayer was used for spraying a solution to both sides of […] leaves until runoff. Reference plants (solvent check) were sprayed with the diluent only containing 20% by volume of acetone/MeOH (1:1) solvent. Treated plants were held in a holding room for three days at approximately 25° C. and ambient relative humidity (RH) prior to grading. Evaluation was conducted by counting the number of live aphids per plant under a microscope. Percent Control was measured by using Abbott's correction formula (W.S. Abbott, “A Method of Computing the Effectiveness of an Insecticide” J. Econ. Entomol. 18 (1925), pp. 265-267) as follows.
Corrected % Control=100*(X−Y)/X • where • X=No. of live aphids on solvent check plants and • Y=No. of live aphids on treated plants

The subject of data set [4] is Yellow Fever Mosquito (YFM) (Aedes aegypti). The note with it: about 1 day-old larvae, scored on mortality after 3 days. The procedure:
Certain molecules disclosed in this document were tested against YFM using procedures described in the following paragraph. In the reporting of the results, the “YFM Rating Table” was used (See Table Section).
Master plates containing 400 μg of a molecule dissolved in 100 μL of dimethyl sulfoxide (DMSO) (equivalent to a 4000 ppm solution) are used. A master plate of assembled molecules contains 15 μL per well. To this plate, 135 μL of a 90:10 water:acetone mixture is added to each well. A robot (Biomek® NXP Laboratory Automation Workstation) is programmed to dispense 15 μL aspirations from the master plate into an empty 96-well shallow plate (“daughter” plate). There are 6 reps (“daughter” plates) created per master. The created daughter plates are then immediately infested with YFM larvae.
The day before plates are to be treated, mosquito eggs are placed in Millipore water containing liver powder to begin hatching (4 g. into 400 ml). After the daughter plates are created using the robot, they are infested with 220 μL of the liver powder/larval mosquito mixture (about 1 day-old larvae). After plates are infested with mosquito larvae, a non-evaporative lid is used to cover the plate to reduce drying. Plates are held at room temperature for 3 days prior to grading. After 3 days, each well is observed and scored based on mortality.

Each structure is given as a SMILES string.

As to `Cc1cccc(C)c1N/C(=N/C(=O)Nc1ccc(-c2ncn(-c3ccc(OC(F)(F)F)cc3)n2)cc1)SCOC(=O)C(C)C` [Molecule A4, (E)-(N′-(2,6-Dimethylphenyl)-N-(4-(1-(4-(trifluoromethyoxy)phenyl)-1H-1,2,4-triazol-3-yl)phenylcarbamoyl)carbamimidoylthio)methyl isobutyrate], the mortality at 50 µg/cm2 in data set [1] and in data set [2] was 50 to 100% each time. The mortality at 200 ppm in data set [3] fell in the range of 0 to 80%. The “Rating YFM (% Control (or Mortality))” value in data set [4] is “A (80-100)”.
As for `Cc1cccc(C)c1N1C(=O)CS/C1=N\C(=O)Nc1ccc(-c2ncn(-c3ccc(OC(F)(F)F)cc3)n2)cc1` [Molecule A14, (Z)-1-(3-(2,6-dimethylphenyl)-4-oxothiazolidin-2-ylidene)-3-(4-(1-(4-(trifluoromethoxy)phenyl)-1H-1,2,4-triazol-3-yl)phenyl)urea], the mortality at 50 µg/cm2 in data set [1] and in data set [2] was 50 to 100% each time. Moreover, the mortality at 200 ppm in data set [3] was 0 to 80%. Besides, the “Rating YFM (% Control (or Mortality))” value in data set [4] is listed as “A (80-100)”.
Consider `COc1ccc(N/C(O)=C/C(=O)Nc2ccc(-c3ncn(-c4ccc(OC(F)(F)F)cc4)n3)cc2)c(C(C)C)c1` [Molecule A34, (Z)-3-hydroxy-3-(2-isopropyl-4-methoxyphenylamino)-N-(4-(1-(4-(trifluoromethoxy)phenyl)-1H-1,2,4-triazol-3-yl)phenyl)acrylamide], for which the mortality at 50 µg/cm2 in data set [1] and in data set [2] was 50 to 100% throughout. Further, the mortality at 200 ppm in data set [3] was 0%. The “Rating YFM (% Control (or Mortality))” value in data set [4] was “A (80-100)”.
As for `CCc1ccccc1N1C(=O)CS/C1=N\C(=O)Nc1ccc(-c2ncn(-c3ccc(OC(F)(F)F)cc3)n2)cc1` [Molecule A35], the mortality at 50 µg/cm2 in data set [1] and in data set [2] was 50 to 100% throughout. Also, the mortality at 200 ppm in data set [3] is 0%. Also, the “Rating YFM (% Control (or Mortality))” value in data set [4] is recorded as “A (80-100)”.
For `COc1cc(C)c(-n2c(C)cs/c2=N\C(=O)Nc2ccc(-c3ncn(-c4ccc(OC(F)(F)F)cc4)n3)cc2)c(C)c1` [Molecule A44], the mortality at 50 µg/cm2 in data set [1] and in data set [2] was 50 to 100% each time. Further, the mortality at 200 ppm in data set [3] was 0 to 80%. The “Rating YFM (% Control (or Mortality))” value in data set [4] is “A (80-100)”.
On to `CCc1ccccc1N/C(S)=N/C(=O)Nc1ccc(-c2ncn(-c3ccc(OC(F)(F)F)cc3)n2)cc1` [Molecule A46], for which the mortality at 50 µg/cm2 in data set [1] and in data set [2] was 50 to 100% each time. For the same compound, in data set [3], the mortality at 200 ppm is 0 to 80%. In data set [4], the “Rating YFM (% Control (or Mortality))” value is “A (80-100)”.
For `COc1ccc(N/C(=N\C(=O)Nc2ccc(-c3ncn(-c4ccc(OC(F)(F)F)cc4)n3)cc2)SCOC(=O)C(C)C)cc1` [Molecule A62], the mortality at 50 µg/cm2 in data set [1] and in data set [2] was 50 to 100% each time. Besides, the mortality at 200 ppm in data set [3] was determined as 0%. Moreover, the “Rating YFM (% Control (or Mortality))” value in data set [4] is reported as “A (80-100)”.
In the case of `COc1ccc(N2C(=O)CS/C2=N\C(=O)Nc2ccc(-c3ncn(-c4ccc(OC(F)(F)F)cc4)n3)cc2)c(C)c1` [Molecule A110], the mortality at 50 µg/cm2 in data set [1] fell in the range of 50 to 100%. For the same compound, the mortality at 0.5 µg/cm2 in data set [2] (0.5 μg/cm2 on artificial diet, read-out: Rating CEW (% Control (or Mortality)), *Tested at 0.5 μg/cm2) fell in the range of 50 to 100%. Further, the mortality at 200 ppm in data set [3] worked out at 0%. In addition, the “Rating YFM (% Control (or Mortality))” value in data set [4] was “A (80-100)”.
Take `Cc1cccc(C)c1N1C(=O)C(C)(C)S/C1=N\C(=O)Nc1ccc(-c2ncn(-c3ccc(OC(F)(F)F)cc3)n2)cc1` [Molecule A126]: the mortality at 50 µg/cm2 in data set [1] and in data set [2] was 50 to 100% throughout. Further, the mortality at 200 ppm in data set [3] came out at 0%. For the same compound, the “Rating YFM (% Control (or Mortality))” value in data set [4] is recorded as “A (80-100)”.

These data come from patent publication US20150196033A1, “PESTICIDAL COMPOSITIONS AND PROCESSES RELATED THERETO” (priority 2012, published 2015).
